Source: patent US20090317476A1, “COMBINATION OF DEHYDROEPIANDROSTERONE OR DEHYDROEPIANDROSTERONE-SULFATE WITH A LEUKOTRIENE RECEPTOR ANTAGONIST FOR TREATMENT OF ASTHMA OR CHRONIC OBSTRUCTIVE PULMONARY DISEASE” (priority 2003, published 2009)
Where “and” joins values, the source holds several entries; their conditions need not be identical. Identical values can stand only once.

Key:
Intracellular adenosine = assay: In vivo effect on adenosine levels in rat tissues
Procedure: Folinic acid (50 mg/kg) was administered intraperitoneally once daily for fourteen days. […] Hearts were removed from animals and flash frozen in liquid nitrogen with 10 s of death. Liver and lungs were removed en bloc and flash frozen with 30 s of death. Brain tissue was subsequently dissected.

[1] = Particle size by Malvern Mastersizer X / light microscope after jet milling or spray drying; type: physicochemical
Procedure: Approximately 1 g sample was passed through the jet mill, once, and approximately 2 g sample were passed through the jet mill twice. […] The resulting solution was sonicated for 3 minutes and appeared fully dispersed. The dispersed solutions were tested on a Malvern Mastersizer X with a small volume sampler (SVS) attachment. One sample of dispersed material was tested 5 times. The median particle size or D (v, 0.5) of unmilled material was 52.56 μm and the % RSD (relative standard deviation) was 7.61 for the 5 values. The D (v, 0.5) for a single pass through the jet mill was 3.90 μm and the % RSD was 1.27, and the D (v, 0.5) from a double pass through the jet mill 3.25 μm and the % RSD was 3.10.
The solution was spray-dried with a B-191 Mini Spray-Drier (Buchi, Flawil, Switzerland) with an inlet temperature of 55° C., outlet temperature of 40° C., at 100% aspirator, at 10% pump, nitrogen flow at 40 mbar and spray flow at 600 units. The spray-dried product was suspended in hexane and Span85 surfactant added to reduce agglomeration. The dispersions were sonicated with cooling for 3-5 minutes for complete dispersion and the dispersed solutions tested on a Malvern Mastersizer X with a Small Volume Sampler (SVS) attachment. […] Visual examination by light microscope of the dispersions of each batch confirmed that spray drying produced small respirable size particles. The mean particle size was 2.4 μm and 2.0 μm for each batch, respectively.

HT-29 SF cells = assay: DHEA effect on cell cycle, flow cytometry; type: cell-based, human; settings: 25, 50, 200 μM; 24-72 hours
Procedure: Cells were plated at 10^5/60-mm dish in duplicate. […] Cultures were trypsinized following 0, 24, 48, or 74 hours and fixed and stained using a modification of a procedure of Bauer et al., Cancer Res. 46, 3173-3178 (1986). Briefly, cells were collected by centrifugation and resuspended in cold phosphate-buffered saline. Cells were fixed in 70% ethanol, washed, and resuspended in phosphate-buffered saline.
After 24, 48, and 72 hours, cells were harvested, fixed in ethanol, and stained with propidium iodide, and the DNA content/cell was determined by flow cytometric analysis. The percentage of cells in G1, S, and G2M phases was calculated using the Cellfit cell cycle analysis program. S phase is marked by a quadrangle for clarity. Representative histograms from duplicate determinations are shown. The experiment was repeated three times.

[2] = tested on: rat peritoneal mast cells; assay: Mast cell degranulation (histamine secretion) after compound 48/80; type: cell-based
Excerpt: Leukotrienes are synthesized within—although not exclusively by the mast cell (Gilchrist, M., McCauley, S.D., & Befus, A. D. (2004) Expression, localization, and regulation of NOS in human mast cell lines: effects on leukotriene production. Blood 104, 462-469.). We determined whether DHEA-sulfate would reduce mast cell degranulation after stimulation with compound 48/80 in rat peritoneal mast cells. Mast cell degranulation was quantified by measurement of histamine, another substance contained within the secretory granules of mast cells. The simple measurement of released histamine is used as a convenient surrogate marker for the release of leukotrienes.
Freshly isolated rat peritoneal mast cells (2×10^5 cells) were pre-incubated for 5 min at 37° C. in a Balanced Salt Solution containing 150 mM NaCl (pH 7.4), 2.7 mM KCl, 0.9 mM CaCl2, 4 mM Na2HPO4, 2.7 mM KH2PO4, 1.75 mg/ml BSA and 0.1 μg/ml compound 48/80. Thereafter, DHEAS or water (control) are added and the mixture is incubated for 2 min at 37° C.
Following incubation, the mixture is cooled to 4° C. then centrifuged at 4500 rpm for 5 min. […]
The amount of secreted histamine is quantified by measuring the fluorescence intensity at λex=360 nm and λem=450 nm using a spectrofluorimeter (GeminiXS, Molecular Devices). The results are expressed as a percent inhibition of control histamine secretion.

[3] = Short-term solution stability of DHEA-S formulation; type: physicochemical; settings: for Appearance on storage: 10 mg/mL in 0.12% NaCl
Procedure: Aliquots of this solution are filled into clear glass vials and stored at RT (24-26° C.) and at 40° C. The samples are checked daily for DHEA-S content, DHEA content, and appearance. For each time point, duplicate samples are withdrawn and diluted from each vial. […] The study is stopped on day three. […] The solution should easily be stable for the day of reconstitution in a clinical trial. The following section describes the aerosol properties of this formulation.

[4] = Solubility of DHEA-S as a function of NaCl and temperature; type: physicochemical; settings: 20 mM Na^+; Ksp 1316 mM^2; 15° C.
Excerpt: Inhalation of pure water can produce a cough stimulus. […] The temperature effect is weaker at high NaCl concentrations.

[5] = Physicochemical testing of DHEA-S dihydrate before and after micronization; settings: for Water (% w/w): Karl Fischer
Procedure: Surface area is determined using five point BET analyses are performed with nitrogen as the adsorbing gas (P/Po=0.05 to 0.30) using a Micromeritics TriStar surface area analyzer. Particle size distributions are measured by laser diffraction using a Micromeritics Saturn Digisizer where the particles are suspended in mineral oil with sodium dioctyl sodium sulfosuccinate as a dispersing agent. Drug substance water content is measured by Karl Fischer titration (Schott Titroline KF). Pure water is used as the standard and all relative standard deviations for triplicates are less than 1%. Powder is added directly to the titration media.

[6] = Solid-state stability neat and with lactose at 50° C. (DHEA formed, HPLC); type: physicochemical
Excerpt: These conditions were used to stress the formulation in order to predict its long-term stability results. […] The primary degradant is DHEA. […] The materials on accelerated storage become more cohesive with time as evidenced by clumping during sample weighing for chemical analysis. […] This is a considerable disadvantage since lactose is the most commonly used inhalation excipient for dry powder formulations. Continuing with the virtually anhydrous form would mean limiting formulations to neat powder or undertaking more comprehensive safety studies to use a novel excipient.

[7] = cited from earlier work

Nc1nc(=O)c2c([nH]1)NCC(CNc1ccc(C(=O)N[C@@H](CCC(=O)O)C(=O)O)cc1)N2C=O (mixture of isomers) [Folinic Acid, Folinic acid]
Effect on adenosine levels, administered alone (Intracellular adenosine; all organs studied): increase in adenosine levels
Effect of coadministration of folinic acid on steroid-mediated adenosine depletion (Intracellular adenosine; with DHEA or methyltestosterone): completely abrogated steroid-mediated adenosine depletion

C[C@]12CC[C@H](OS(=O)(=O)[O-])CC1=CC[C@@H]1[C@@H]2CC[C@]2(C)C(=O)CC[C@@H]12.[Na+] [Anhydrous DHEA-S]
D (v, 0.5) ([1]; double pass through the jet mill): 3.25 μm
D (v, 0.5) ([1]; single pass through the jet mill): 3.90 μm
median particle size or D (v, 0.5) ([1]; unmilled material): 52.56 μm

C[C@]12CC[C@H](O)CC1=CC[C@@H]1[C@@H]2CC[C@]2(C)C(=O)CC[C@@H]12 [DHEA, 3β-hydroxyandrost-5-en-17-one]
Effect on cell cycle distribution (HT-29 SF cells): G1 block

C[C@]12CC[C@H](OS(=O)(=O)[O-])CC1=CC[C@@H]1[C@@H]2CC[C@]2(C)C(=O)CC[C@@H]12.[Na+] [DHEA-S, sodium dehydroepiandrostenone sulfate]
maximal effect, percent inhibition of control histamine secretion ([2]; at 0.1 uM, compound 48/80 stimulated): 69.9%
solubility under the assay conditions ([2]; at 10^-4 M): highly limited
Stability of nebulizer formulation ([3]; 7.5 mg/mL of DHEA-S in 0.12% NaCl, RT): stable for at least one day at RT
Appearance on storage ([3]; 40° C.): became cloudy after two days of storage
Appearance on storage ([3]; RT (24-26° C.)): slight precipitate is observed on the third day
calculated DHEA-S solution concentration [4]: 10.7 mg/mL
calculated DHEA-S^− solution concentration [4]: 27.5 mM

C[C@]12CC[C@H](OS(=O)(=O)[O-])CC1=CC[C@@H]1[C@@H]2CC[C@]2(C)C(=O)CC[C@@H]12.O.O.[Na+] [DHEA-S•dihydrate]
Particle size (D50%) ([5]; Bulk): 31 microns
Water (% w/w) ([5]; Bulk): 8.5 % w/w
Particle size (D50%) ([5]; Micronized): 3.7 microns
Water (% w/w) ([5]; Micronized): 8.4 % w/w
Surface area (m^2/g) ([5]; Micronized, five point BET): 4.9 m^2/g
Percent DHEA formed ([6]; DHEA-S dihydrate, 50° C., 1 week): 0.216%
Percent DHEA formed ([6]; DHEA-S dihydrate, 50° C., 3 weeks): 0.317%
Percent DHEA formed ([6]; DHEA-S dihydrate, 50° C., 4 weeks): 0.374%
water content, starting value ([6]; before storage): 8.8%
Percent DHEA formed ([6]; dihydrate, Control, neat, sealed, 25° C., 4 weeks): 0.218%
Percent DHEA formed ([6]; dihydrate, Control, neat, sealed, 25° C., Time (Weeks)): 0.213%
water content after accelerated storage ([6]; one week at 50° C.): 8.66%

C[C@]12CC[C@H](OS(=O)(=O)[O-])CC1=CC[C@@H]1[C@@H]2CC[C@]2(C)C(=O)CC[C@@H]12.[Na+] [Spray-Dried Drug Product]
mean particle sizes ([1]; two batches of spray dried material, Malvern Mastersizer X, listed as spray-dried product): 5.07±0.70 μm and 6.66±0.91 μm

COc1cc(C(=O)NS(=O)(=O)c2ccccc2C)ccc1Cc1cn(C)c2ccc(NC(=O)OC3CCCC3)cc12 [Zafirlukast, 4(5-cyclopentyloxy-carbonylamino-1-methyl-indol-3ylmethyl)-3methoxy-N-o-tolylsulfonylbenzamide]
Solubility in acetone [7]: freely soluble
Solubility in dimethylsulfoxide [7]: freely soluble
Solubility in methanol [7]: slightly soluble
Solubility in tetrahydrofuran [7]: freely soluble
Solubility in water [7]: practically insoluble
